# Measurements as given in US20250283049A1, “AGENT FOR CULTURING ORGANOID IN ABSENCE OF EXTRACELLULAR MATRIX” (KEIO UNIVERSITY, priority 2022, published 2025).
# Key:
# [1] = test system: human large intestine-derived organoid; experiment: Culture of organoids in presence of Matrigel and LATS kinase inhibitor; cell number by ATP (CellTiter-Glo 3D); assay type: cell-based; settings: presence of Matrigel; 10 mM Lats-IN as printed; 7 days of culture; vs control without Lats-IN
# Experimental: A human small intestine-derived organoid and a human large intestine-derived organoid were cultured in the presence of an inhibitor of LATS1 kinase and LATS2 kinase, Lats-IN-1 (CAS No. 1424635-83-5, hereinafter sometimes referred to as “Lats-IN” and also referred to as “TRULI”), and their dynamics were observed.
# The human small intestine-derived organoid and the human large intestine-derived organoid used were those established from tissues derived from patients with gastrointestinal tumors who provided informed consent, in accordance with an ethical research plan approved by the Ethics Committee of the Keio University School of Medicine.
# Each organoid was dissociated into single cells using TrypLE Express (Thermo Fisher Scientific Inc.) to obtain a cell suspension. […]
# The cell proliferation was measured by measuring adenosine triphosphate (ATP) using a commercially available kit (product name “CellTiter-Glo 3D,” Promega Corporation).
# The lower left panel of FIG. 2 is a photograph of a control (Ctrl) human large intestine-derived organoid cultured in the absence of Lats-IN, and the lower center panel of FIG. 2 is a photograph of a human large intestine-derived organoid cultured in the presence of Lats-IN. […] The vertical axis of the graph represents luminescence intensity (relative value) indicating the amount of ATP present.
# [2] = test system: immunodeficient mouse (NOG mouse) colon; experiment: Orthotopic xenotransplantation of organoids established in absence of Matrigel; assay type: in vivo; settings: organoids established in absence of Matrigel and presence of TRULI, 1×10^7 cells
# Text: The human colon-derived organoids established in the absence of Matrigel (registered trademark) and in the presence of TRULI in Experimental Example 22 were orthotopically xenotransplanted into an immunodeficient mouse (NOG mouse) to examine whether they would engraft.
# FIG. 31 is a schematic view explaining an overview of this experimental example. The human colon-derived organoids established in the absence of Matrigel (registered trademark) and in the presence of TRULI were electroporated with a green fluorescent protein (GFP) expression vector to obtain GFP-labeled human colon-derived organoids.
# Subsequently, the GFP-labeled human colon-derived organoids were dissociated into single cells and then pre-cultured for 4 days in a medium supplemented with 2% Matrigel (registered trademark) or 2% collagen gel (50% type IA, 50% type IC). […]
# Subsequently, the total cell number of the pre-cultured GFP-labeled human colon-derived organoids was counted, and the cells were suspended in Advanced DMEM/F12 medium supplemented with 10% (vol/vol) Matrigel (registered trademark) or type IA collagen. […]
smiles,measurement,setting,value
O=C(N=c1sccn1Cc1ccccc1)c1c[nH]c2ncccc12 [Lats-IN],"cell proliferation (cell number per well, ATP luminescence)",[1],significantly activated
same,engraftment of human colon-derived organoids established with TRULI,[2],could engraft
